The subject of the first experiment is HepG2 (human liver cancer cells). Kind of experiment: In vitro proliferation inhibition (CCK-8), HepG2. The note with it: Homo sapiens; HepG2, test (2), average±standard deviation of three wells. It is filed as cell-based. An excerpt: (§1) • 1) Cell sources: HeLa (human cervical cancer cells), CaSki (human cervical cancer intestinal metastasis cells), Huh7 (human liver cancer cells), HepG2 (human liver cancer cells), Hep3B (human liver cancer cells) were purchased from the Chinese Academy of Sciences cell bank (Shanghai); LO2 (human normal liver cells) and HcerEpic (human normal uterine epithelial cells) were from ATCC. • 2) Cell culture and passage: The cell culture and passage method is the same as that described in “The inhibitory effect of compounds on the OCT4 protein in tumor stem cells (CSC)”. • 3) Cell dosing treatment: The each type of cells mentioned above was digested, counted, and inoculated in each well of the 96 well cell culture plate (#3988, Corning) at a density of 5000 cells/200 μl culture medium. They were cultured in a cell culture incubator at 37° C. and 5% CO2 for 24 hours to allow the cells to fully adherent to the wall. Then, the original culture medium was replaced with complete culture medium containing gradient diluted KZT-A5 (each concentration with 3 repeated wells) as well as DMSO (#D5879, Sigma Aldrich) solvent control, and they are cultured for additional 72 hours. • 4) Pharmacodynamic test and statistics: First, the morphology of cells treated with the above compounds was observed, photographed and recorded using an inverted phase contrast microscope (X71, Olympus). Then the original culture medium was replaced with phenol red free culture medium containing CCK-8 detection reagent (#E606335, Shanghai Shenggong) respectively, and they are cultured in the incubator for additional 2 hours. Then the OD450 nm absorbance value (OD value) was measured on a multifunctional enzyme-linked immunosorbent assay (168-1130, Bio Rad). After the cells were treated with the test compound, the equations for calculating the cell survival rate or cell growth rate is: survival rate=GD value of the treated group/OD value of the control group×100%; the equations for calculating the growth inhibition rate of compounds on cell proliferation is: inhibition rate=(OD value of control group−OD value of the treated group)/OD value of control group×100%. Further, the IC50 of each compound was calculated in SPSS based on the inhibition rate. […]
With `CCC(CO)/N=C1\CCCc2c1[nH]c1ccc(C)cc21` (stereo not drawn) [AH057, reference compound], the concentration for half-maximal inhibition (IC50) was determined as 40.02 ± 0.08 µM.

Another experiment deals with Huh7 (human liver cancer cells). Kind of experiment: In vitro proliferation inhibition (CCK-8), Huh7. It is filed as cell-based. The note with it: Homo sapiens, Huh-7, Huh7, test (2), average±standard deviation of three wells. An excerpt: (§2) • 1) Cell sources: HeLa (human cervical cancer cells), CaSki (human cervical cancer intestinal metastasis cells), Huh7 (human liver cancer cells), HepG2 (human liver cancer cells), Hep3B (human liver cancer cells) were purchased from the Chinese Academy of Sciences cell bank (Shanghai); LO2 (human normal liver cells) and HcerEpic (human normal uterine epithelial cells) were from ATCC. • 2) Cell culture and passage: The cell culture and passage method is the same as that described in “The inhibitory effect of compounds on the OCT4 protein in tumor stem cells (CSC)”. • 3) Cell dosing treatment: The each type of cells mentioned above was digested, counted, and inoculated in each well of the 96 well cell culture plate (#3988, Corning) at a density of 5000 cells/200 μl culture medium. They were cultured in a cell culture incubator at 37° C. and 5% CO2 for 24 hours to allow the cells to fully adherent to the wall. Then, the original culture medium was replaced with complete culture medium containing gradient diluted KZT-A5 (each concentration with 3 repeated wells) as well as DMSO (#D5879, Sigma Aldrich) solvent control, and they are cultured for additional 72 hours. • 4) Pharmacodynamic test and statistics: First, the morphology of cells treated with the above compounds was observed, photographed and recorded using an inverted phase contrast microscope (X71, Olympus). Then the original culture medium was replaced with phenol red free culture medium containing CCK-8 detection reagent (#E606335, Shanghai Shenggong) respectively, and they are cultured in the incubator for additional 2 hours. Then the OD450 nm absorbance value (OD value) was measured on a multifunctional enzyme-linked immunosorbent assay (168-1130, Bio Rad). After the cells were treated with the test compound, the equations for calculating the cell survival rate or cell growth rate is: survival rate=GD value of the treated group/OD value of the control group×100%; the equations for calculating the growth inhibition rate of compounds on cell proliferation is: inhibition rate=(OD value of control group−OD value of the treated group)/OD value of control group×100%. Further, the IC50 of each compound was calculated in SPSS based on the inhibition rate.
(§3) • 1) Cell sources: Huh7 (human liver cancer cells), HepG2 (human liver cancer cells), Hep3B (human liver cancer cells), and HeLa (human cervical cancer cells) were all purchased from the Chinese Academy of Sciences cell bank (Shanghai), while LO2 (human normal liver cells) was obtained from ATCC. • 2) Cell culture and passage: The cell culture and passage method is the same as that described in “The inhibitory effect of compounds on human tumor cell lines from different tissue sources (1)”. • 3) Cell dosing treatment: The cell dosing treatment method is the same as that described in “The inhibitory effect of compounds on human tumor cell lines from different tissue sources (1). • 4) Pharmacodynamic test and statistics: The pharmacodynamic test and statistics method is the same as that described in “The inhibitory effect of compounds on human tumor cell lines from different tissue sources (1)”. The IC50 value data of the compound on each type of tumor cells is the average±standard deviation of three wells in one test.
`CCC(CO)/N=C1\CCCc2c1[nH]c1ccc(C)cc21` (stereo not drawn) [AH057, reference compound]: the IC50 turned out to be 44.2 ± 1.61 µM.

Another experiment deals with LO2 (human normal liver cells). In words: In vitro proliferation inhibition (CCK-8), LO2. Type of experiment: cell-based. The note with it: LO2, test (2), average±standard deviation of three wells. From the text: • 1) Cell sources: HeLa (human cervical cancer cells), CaSki (human cervical cancer intestinal metastasis cells), Huh7 (human liver cancer cells), HepG2 (human liver cancer cells), Hep3B (human liver cancer cells) were purchased from the Chinese Academy of Sciences cell bank (Shanghai); LO2 (human normal liver cells) and HcerEpic (human normal uterine epithelial cells) were from ATCC. • 2) Cell culture and passage: The cell culture and passage method is the same as that described in “The inhibitory effect of compounds on the OCT4 protein in tumor stem cells (CSC)”. • 3) Cell dosing treatment: The each type of cells mentioned above was digested, counted, and inoculated in each well of the 96 well cell culture plate (#3988, Corning) at a density of 5000 cells/200 μl culture medium. They were cultured in a cell culture incubator at 37° C. and 5% CO2 for 24 hours to allow the cells to fully adherent to the wall. Then, the original culture medium was replaced with complete culture medium containing gradient diluted KZT-A5 (each concentration with 3 repeated wells) as well as DMSO (#D5879, Sigma Aldrich) solvent control, and they are cultured for additional 72 hours. • 4) Pharmacodynamic test and statistics: First, the morphology of cells treated with the above compounds was observed, photographed and recorded using an inverted phase contrast microscope (X71, Olympus). Then the original culture medium was replaced with phenol red free culture medium containing CCK-8 detection reagent (#E606335, Shanghai Shenggong) respectively, and they are cultured in the incubator for additional 2 hours. Then the OD450 nm absorbance value (OD value) was measured on a multifunctional enzyme-linked immunosorbent assay (168-1130, Bio Rad). […] Further, the IC50 of each compound was calculated in SPSS based on the inhibition rate. […]
`CCC(CO)/N=C1\CCCc2c1[nH]c1ccc(C)cc21` (stereo not drawn) [AH057, reference compound] yielded an IC50 of 85.5 ± 2.92 µM.

The next experiment has as its system Hep3B (human liver cancer cells). In words: In vitro proliferation inhibition (CCK-8), Hep3B. It is filed as cell-based. The note with it: Homo sapiens, test (2), average±standard deviation of three wells.
Source text: as §1
For `CCC(CO)/N=C1\CCCc2c1[nH]c1ccc(C)cc21` (stereo not drawn) [AH057, reference compound], the half-maximal inhibitory concentration (IC50) is 18 ± 1.2 µM.

Another experiment has as its system HeLa (human cervical cancer cells). Kind of experiment: In vitro proliferation inhibition (CCK-8), HeLa. The note with it: Homo sapiens, 72 h, CCK-8, average of three wells in one test. Type of experiment: cell-based.
Source text: as §2, §3
Turning to `COc1cc(/C=C2\CCc3c([nH]c4ccc(-c5cn[nH]c5)cc34)C2=O)ccc1O` [Compound 24], the IC50 is less than 50 µM. Same read-out and setting: the value for `COc1cc(/C=C2\CCc3c([nH]c4ccc(N5CCNCC5)cc34)C2=O)ccc1O` [Compound 23] was less than 50 µM; that for `Cc1ccc2[nH]c3c(c2c1)CC/C(=C\c1c[nH]c2ncccc12)C3=O` [Compound 14] was less than 50 µM. Take `COc1cc(/C=C2\CCc3c([nH]c4ccc(C#N)cc34)C2=O)ccc1O` [Compound 20]: the 50% inhibitory concentration (IC50) was less than 50 µM. `C#Cc1ccc2[nH]c3c(c2c1)CC/C(=C\c1ccc(O)c(OC)c1)C3=O` [Compound 25] had an IC50 of less than 50 µM. The compound `COc1cc(/C=C2\CCc3c([nH]c4cc(OC)c(OC)cc34)C2=O)ccc1O` [Compound 31] registered an IC50 of less than 50 µM. The compound `COc1ccc2[nH]c3c(c2n1)CC/C(=C\c1ccc(O)c(OC)c1)C3=O` [Compound 33] had a half-maximal inhibitory concentration (IC50) of less than 50 µM. In turn, `COc1cc(/C=C2\CCc3c([nH]c4c(Cl)cc(Cl)cc34)C2=O)ccc1O` [Compound 32] displayed an IC50 of less than 50 µM.

Consider `COc1cc(CC2CCc3c([nH]c4ccc(C)cc34)C2=O)ccc1O` (stereo not drawn) [Compound 8], for which the IC50 is less than 50 µM. The compound `COc1cc(/C=C2\CCc3c([nH]c4ccc(N5CCC(O)CC5)cc34)C2=O)ccc1O` [Compound 22] had an IC50 of less than 50 µM.

As for `COC(=O)c1ccc2[nH]c3c(c2n1)CC/C(=C\c1ccc(O)c(OC)c1)C3=O` [Compound 28], the IC50 was less than 50 µM. The same measure, in the same setting: the value for `COc1cc(/C=C2\CCc3c([nH]c4ccc(Br)cc34)C2=O)ccc1O` [Compound 19] was less than 50 µM; that for `Cc1ccc2[nH]c3c(c2c1)CC/C(=C\c1ccnc2[nH]ccc12)C3=O` [Compound 16] was less than 50 µM. Same read-out and setting: the value for `COC(=O)c1ccc2[nH]c3c(c2c1)CC/C(=C\c1ccc(O)c(OC)c1)C3=O` [Compound 21] was less than 50 µM. `COc1cc(/C=C2\CCc3c([nH]c4ccc(F)cc34)C2=O)ccc1O` [Compound 27]: the 50% inhibitory concentration (IC50) was less than 50 µM.

The experiment is the same for the next values; noted with them: Homo sapiens, 72 hours, CCK-8, average of three wells in one test.
In turn, `COc1ccc2[nH]c3c(c2c1)CC/C(=C\c1ccc(O)c(OC)c1)C3=O` [Compound 18] yielded an IC50 of less than 50 µM.

The compound `COc1cc(/C=C2\CCCc3c([nH]c4ccc(C)cc34)C2=O)ccc1O` [Compound 37] yielded an IC50 of less than 50 µM. In the case of `COc1cc(/C=C2\Cc3c([nH]c4ccc(C)cc34)C2=O)ccc1O` [Compound 35], the 50% inhibitory concentration (IC50) was less than 50 µM.

As to `COc1cc(/C=C2\CC(C)(C)c3c([nH]c4ccc(C)cc34)C2=O)ccc1O` [Compound 34], the IC50 was less than 50 µM. As for `COc1cc(/C=C2\CCc3c([nH]c4ccc(C)cc34)C2=O)cc(OC)c1OC` [Compound 38], the IC50 is less than 50 µM. `COc1cc(/C=C2\CSc3c([nH]c4ccc(C)cc34)C2=O)ccc1O` [Compound 36] displayed a 50% inhibitory concentration (IC50) of less than 50 µM.

The same experiment, now with this note: Homo sapiens, test (2), average±standard deviation of three wells.
`CCC(CO)/N=C1\CCCc2c1[nH]c1ccc(C)cc21` (stereo not drawn) [AH057, reference compound]: the half-inhibitory concentration (IC50) is 0.63 ± 0.03 µM.

A further experiment relates to HeLa cells. In words: Clone formation of HeLa cells, single drugs and combination. Type of experiment: cell-based, human. The note with it: 700 nM KZT-A5, 100 nM SGI-1027, two weeks, compared with DMSO control, FIG. 7. An excerpt:
• 1) Cell source: HeLa cells were purchased from the Chinese Academy of Sciences Cell Bank (Shanghai). • 2) Cell culture and passage: The cell culture and passage method is the same as that described in “Inhibition of OCT4 protein in tumor stem cells (CSCs) by compounds”. • 3) Cell dosing treatment: The cells were inoculated into a 6-well plate containing the aforementioned culture medium at a density of 200 cells per well. They were divided into four groups, and DMSO (as blank control group), 700 nM KZT-A5 (as KZT-A5 single drug group), 100 nM SGI-1027 (as SGI-1027 single drug group), and 700 nM KZT-A5+100 nM SGI-1027 (as combination group) was added respectively. After two weeks, they were photographed, and the number of clones was counted in each group respectively.
As to `Cc1cc(Nc2ccc(NC(=O)c3ccc(Nc4ccnc5ccccc45)cc3)cc2)nc(N)n1` [SGI-1027, reference compound], the “inhibition of clone formation” value is on record as “only slightly inhibits clone formation”.

The IC50 is the concentration that gives 50% inhibition. Lower therefore signals higher potency.
